In patent publication US20160199351A1, “COMPOSITIONS AND METHODS FOR INHIBITING FUNGAL INFECTIONS” (priority 2015, published 2016):
Values after ≈ are worked out from the molar mass of the structure shown. Like-named read-outs stand apart in the source and are kept apart here.

Experiments:
Coccidioides sp. = assay: microbe, parasite or virus in culture; format: cell-based
C. glabrata = assay: MIC against Candida species (Table 4); details: for MIC50 / MIC: Nakaseomyces glabratus; for MIC: read-out: MIC 100%
Rhizopus oryzae = assay: MIC, CLSI M38-A2 broth dilution (Table 1); format: cell-based
Paeceilomyces variotii = assay: MIC, CLSI M38-A2 broth dilution (Table 1); format: cell-based; details: isolate QC
Fusarium solani = assay: MIC, CLSI M38-A2 broth dilution (Table 1); format: cell-based; details: isolate FS1, 48 hours
Fusarium sp. = assay: MIC (Table 5); format: cell-based; details: for MIC / MIC50: Fusarium; for MIC: read-out: MIC 100%

Compound: NCC(=O)Nc1ccc(-n2nc(C(F)(F)F)cc2-c2ccc3c(ccc4ccccc43)c2)cc1 [AR-12, 2-amino-N-(4-(5-(phenanthren-2-yl)-3-(trifluoromethyl)-1H-pyrazol-1-yl)phenyl)acetamide]
- MIC (Coccidioides sp.; Coccidioides, read-out: MIC 100%, isolate COCCI-3, 72/192 hrs): 4 µg/mL (≈ 8.69 µM)
- MIC 50% (Coccidioides sp.; isolate COCCI-1, 72/192 hrs): 2 µg/mL (≈ 4.34 µM)
- MIC 50% (Coccidioides sp.; isolate COCCI-3, 72/192 hrs): 2 µg/mL (≈ 4.34 µM)
- MIC50 (C. glabrata; 24 h, isolate CG-1, 24 hrs): 4 µg/mL (≈ 8.69 µM)
- MIC50 (C. glabrata; 24 h, isolate CG-2, 24 hrs): 4 µg/mL (≈ 8.69 µM)
- MIC50 (C. glabrata; 24 h, isolate CG-3, 24 hrs): 4 µg/mL (≈ 8.69 µM)
- MIC50 (C. glabrata; 24 h, isolate CG-4, 24 hrs): 4 µg/mL (≈ 8.69 µM)
- MIC50 (C. glabrata; 24 h, isolate CG-5, 24 hrs): 4 µg/mL (≈ 8.69 µM)
- MIC50 (C. glabrata; 24 h, isolate CG-6, 24 hrs): 4 µg/mL (≈ 8.69 µM)
- MIC50 (C. glabrata; 24 h, isolate CG-7, 24 hrs): 2 µg/mL (≈ 4.34 µM)
- MIC50 (C. glabrata; 24 h, isolate CG-8, 24 hrs): 4 µg/mL (≈ 8.69 µM)
- MIC50 (C. glabrata; 24 h, isolate CG-9, 24 hrs): 2 µg/mL (≈ 4.34 µM)
- MIC50 (C. glabrata; 24 h, isolate CG-10, 24 hrs): 2 µg/mL (≈ 4.34 µM)
- MIC (C. glabrata; 24 h): 4 µg/mL (≈ 8.69 µM)
- MIC50 (C. glabrata; 48 h, isolate CG-1, 48 hrs): 4 µg/mL (≈ 8.69 µM)
- MIC50 (C. glabrata; 48 h, isolate CG-2, 48 hrs): 4 µg/mL (≈ 8.69 µM)
- MIC50 (C. glabrata; 48 h, isolate CG-3, 48 hrs): 4 µg/mL (≈ 8.69 µM)
- MIC50 (C. glabrata; 48 h, isolate CG-4, 48 hrs): 4 µg/mL (≈ 8.69 µM)
- MIC50 (C. glabrata; 48 h, isolate CG-5, 48 hrs): 4 µg/mL (≈ 8.69 µM)
- MIC50 (C. glabrata; 48 h, isolate CG-6, 48 hrs): 4 µg/mL (≈ 8.69 µM)
- MIC50 (C. glabrata; 48 h, isolate CG-7, 48 hrs): 4 µg/mL (≈ 8.69 µM)
- MIC50 (C. glabrata; 48 h, isolate CG-8, 48 hrs): 4 µg/mL (≈ 8.69 µM)
- MIC50 (C. glabrata; 48 h, isolate CG-9, 48 hrs): 4 µg/mL (≈ 8.69 µM)
- MIC50 (C. glabrata; 48 h, isolate CG-10, 48 hrs): 4 µg/mL (≈ 8.69 µM)
- MIC (C. glabrata; 48 h): 4 µg/mL (≈ 8.69 µM)
- MIC 100% (C. glabrata; isolate CG-1, 24 hrs): 4 µg/mL (≈ 8.69 µM)
- MIC 100% (C. glabrata; isolate CG-1, 48 hrs): 4 µg/mL (≈ 8.69 µM)
- MIC 100% (C. glabrata; isolate CG-2, 24 hrs): 4 µg/mL (≈ 8.69 µM)
- MIC 100% (C. glabrata; isolate CG-2, 48 hrs): 4 µg/mL (≈ 8.69 µM)
- MIC 100% (C. glabrata; isolate CG-4, 24 hrs): 4 µg/mL (≈ 8.69 µM)
- MIC 100% (C. glabrata; isolate CG-4, 48 hrs): 4 µg/mL (≈ 8.69 µM)
- MIC 100% (C. glabrata; isolate CG-5, 24 hrs): 4 µg/mL (≈ 8.69 µM)
- MIC 100% (C. glabrata; isolate CG-5, 48 hrs): 4 µg/mL (≈ 8.69 µM)
- MIC 100% (C. glabrata; isolate CG-6, 24 hrs): 4 µg/mL (≈ 8.69 µM)
- MIC 100% (C. glabrata; isolate CG-6, 48 hrs): 4 µg/mL (≈ 8.69 µM)
- MIC 100% (C. glabrata; isolate CG-7, 24 hrs): 4 µg/mL (≈ 8.69 µM)
- MIC 100% (C. glabrata; isolate CG-7, 48 hrs): 4 µg/mL (≈ 8.69 µM)
- MIC 100% (C. glabrata; isolate CG-8, 24 hrs): 4 µg/mL (≈ 8.69 µM)
- MIC 100% (C. glabrata; isolate CG-8, 48 hrs): 4 µg/mL (≈ 8.69 µM)
- MIC 100% (C. glabrata; isolate CG-9, 24 hrs): 4 µg/mL (≈ 8.69 µM)
- MIC 100% (C. glabrata; isolate CG-9, 48 hrs): 4 µg/mL (≈ 8.69 µM)
- MIC 100% (C. glabrata; isolate CG-10, 24 hrs): 4 µg/mL (≈ 8.69 µM)
- MIC 100% (C. glabrata; isolate CG-10, 48 hrs): 4 µg/mL (≈ 8.69 µM)
- MIC 50% (Rhizopus oryzae; isolate RO1, 24 hours): 4 gg/m1
- MIC 100% (Rhizopus oryzae; isolate RO1, 24 hours): 4 gg/m1
- MIC 50% (Rhizopus oryzae; isolate RO2, 24 hours): 4 gg/m1
- MIC 100% (Rhizopus oryzae; isolate RO2, 24 hours): 4 gg/m1
- MIC 50% (Rhizopus oryzae; isolate RO3, 24 hours): 4 gg/m1
- MIC 100% (Rhizopus oryzae; isolate RO3, 24 hours): 4 gg/m1
- MIC 50% (Paeceilomyces variotii): 4 gg/m1
- MIC 100% (Paeceilomyces variotii): 4 gg/m1
- MIC 50% (Fusarium solani): 4 gg/m1
- MIC 100% (Fusarium solani): 4 gg/m1
- MIC (Fusarium sp.; 24 h, isolate F-1, 24 hrs): 2 µg/mL (≈ 4.34 µM)
- MIC (Fusarium sp.; 24 h, isolate F-2, 24 hrs): 2 µg/mL (≈ 4.34 µM)
- MIC (Fusarium sp.; 24 h, isolate F-3, 24 hrs): 2 µg/mL (≈ 4.34 µM)
- MIC50 (Fusarium sp.; isolate F-1, 48/72 hrs): 4 µg/mL (≈ 8.69 µM)
- MIC (Fusarium sp.; isolate F-1, 48/72 hrs): 4 µg/mL (≈ 8.69 µM)
- MIC (Fusarium sp.; isolate F-2, 48/72 hrs): 4 µg/mL (≈ 8.69 µM)
- MIC (Fusarium sp.; isolate F-3, 48/72 hrs): 4 µg/mL (≈ 8.69 µM)
- MIC50 (Fusarium sp.; isolate F-1, 24 hrs): 2 µg/mL (≈ 4.34 µM)
- MIC 50% (Fusarium sp.; isolate F-2, 48/72 hrs): 4 µg/mL (≈ 8.69 µM)
- MIC 50% (Fusarium sp.; isolate F-2, 24 hrs): 2 µg/mL (≈ 4.34 µM)
- MIC 50% (Fusarium sp.; isolate F-3, 48/72 hrs): 4 µg/mL (≈ 8.69 µM)
- MIC 50% (Fusarium sp.; isolate F-3, 24 hrs): 2 µg/mL (≈ 4.34 µM)
